Data as given in patent publication US20190336496A1, “SELECTIVE BCL-2 INHIBITORS IN COMBINATION WITH AN ANTI-PD-1 OR AN ANTI-PD-L1 ANTIBODY FOR THE TREATMENT OF CANCERS” (AbbVie Inc., priority 2018, published 2019).

Assays:
CT26 tumors = assay: CT26 mouse colon carcinoma syngeneic model; assay type: in vivo; details: CT26 in BALB/c mice; venetoclax 50 mg/kg/day orally 14 days; antibody 10 mg/kg IP every 4 days, 3 times; day 18
Protocol: (§2) BALB/c, C57BL/6, CB6F1 (C57BL/6 bred with BALB/c) and SCID mice were obtained from Charles River (Wilmington, Mass.).
EMT6, mouse mammary carcinoma and CT26, mouse colon carcinoma, cell lines were obtained from ATCC (Manassas, Va.).
(§3) Compound (I),venetoclax, was formulated in 10% ethanol+30% PEG 400+60% Phosal® 50PG. Venetoclax was administered orally once a day for 14 days at 50 mg/kg/day.
(§4) 1×10^5 CT26, EMT6 or MC38 cells were subcutaneously injected with Matrigel into the flanks of BALB/c, CB6F1 or C57BL/6 mice, respectively. Seven days later, mice were randomized to treatment groups of vehicle, venetoclax, anti-PD-1/PD-L1 or the combination of venetoclax and anti-PD-1/PD-L1. Tumor volume was determined via measurements of the length (L) and width (W) of the tumor with electronic calipers and the volume was calculated according to the following equation: V=L×W2/2 using Study Director Version 2.1.11 (Studylog Systems Inc., South San Francisco). Complete response (CR) was defined as reduction in tumor volume to ≤25 mm^3 over at least 3 successive measurements.

CMV-positive CD8 T cells = assay: CMV specific CD8 T cell response; assay type: cell-based, human; details: overnight (12-14 hours) incubation
Excerpt: The cytomegalovirus (CMV) specific assay was used to evaluate the effects of venetoclax on antigen-experienced CD8 T cells. This assay used CMV) peptide pp65 ([…], SEQ ID NO: 53) to stimulate CMV-positive CD8 T cells, and MART ([…]) peptide as a negative control. Human CMV-positive CD8 T cells and CMV peptide pp65 were purchased from Astarte Biologics and MART peptide as purchased from Genscript. 2×10^5 CMV-positive CD8 T cells were stimulated with 2×10^5 CMV pp65 peptide or MART peptide loaded T2 cells (2.5 μg/ml of peptide) with brefeldin-A in RPMI media supplemented with 10% fetal bovine serum (FBS). For measuring the IFNγ secretion in the supernatant, CMV+ CD8 T cells were activated with CMV pp65 peptide or MART peptide loaded T2 cells and incubated with venetoclax without brefeldin-A in RPMI media supplemented with 10% fetal bovine serum (FBS). […] Cells were analyzed using an LSRFortessa™ X-20 instrument (BD Biosciences). The secreted IFNγ in supernatant was measured by ELISA.
CMV+ CD8 T cells were activated by CMV pp65 peptide ([…]) loaded on T2 cells and the effect of venetoclax on the function of these cells was assessed by measuring intra-cellular and secreted IFNγ (flow cytometry and ELISA as described above). […]

NCI-H358 = assay: Venetoclax cell killing (CellTiter-Glo); assay type: cell-based; details: Homo sapiens, NCI-H358, 72 h; Lung; 10% FBS; 3 days
Protocol: (§1) Solid tumor cell lines were obtained from American Type Culture Collection (ATCC, Manassas, Va.) or the National Cancer Institute (NCI) and cultured in humidified incubators at 37° C. (5% CO2) in appropriate media (specified by supplier) supplemented with 10% fetal bovine serum (FBS) or 10% human serum (HS). 24 hours after plating into 96-well or 384-well tissue culture plates, venetoclax was added to cells at various concentrations (typically 0.010 to 10 μM in half-log increments) to perform concentration-response assessments of cell killing. After 1 to 5 days of culture in the presence of venetoclax, cell viability was assessed using CellTiter-Glo® reagent (Promega). IC50 values were determined by non-linear regression analysis of the concentration response data (Table 5 and Table 6).

HCT-116 = assay: Venetoclax cell killing (CellTiter-Glo); assay type: cell-based; details: Homo sapiens, HCT-116, 120 h; Colorectal; 10% FBS; 5 days
Protocol: as §1

SKBR3 = assay: Venetoclax cell killing (CellTiter-Glo); assay type: cell-based; details: Homo sapiens, SK-BR-3, 72 h; Breast Cancer; 10% FBS; 3 days
Protocol: as §1

SW48 = assay: Venetoclax cell killing (CellTiter-Glo); assay type: cell-based; details: Homo sapiens, SW48, 120 h; Colorectal; 10% FBS; 5 days
Protocol: as §1

NCI-H661 = assay: Venetoclax cell killing (CellTiter-Glo); assay type: cell-based; details: Homo sapiens, NCI-H661, 72 h; Lung; 10% FBS; 3 days
Protocol: as §1

NCI-H69 = assay: Venetoclax cell killing (CellTiter-Glo); assay type: cell-based; details: Homo sapiens, NCI-H69, 24 h; Lung; 10% FBS; 1 day
Protocol: as §1

FaDu = assay: Venetoclax cell killing (CellTiter-Glo); assay type: cell-based; details: Homo sapiens, 120 h, Hypopharyngeal, 10% FBS, 5 days
Protocol: as §1

mouse lymphocytes = assay: In vivo sensitivity of lymphocytes (flow cytometry)
Protocol: FIG. 2: In vivo sensitivity of lymphocytes to Compound (I). […] Descriptions of each sub-section are as follows: (A) In vivo sensitivity of lymphocytes following one week of treatment with Compound (I). Naïve CB6F1 mice were treated daily with Compound (I) (50/mg/kg) for one week. Lymph nodes were collected, and immune cells were quantified by flow cytometry; (B) In vivo sensitivity of splenocytes following one week of treatment with Compound (I). Naïve C57BL/6 mice were treated daily with Compound (I) (50/mg/kg) for one week. Spleens were collected and immune cells were quantified by flow cytometry. Mouse splenocytes, including B-cells, CD8+ T-cells, and CD4+ T-cells, were sensitive to in vivo treatment with Compound (I), as described in Example 1; (C) In vivo sensitivity of T-cell subsets in splenocytes following one week of treatment with Compound (I). CD4+ naïve T-cells (TN) and CD8+ central memory T-cells in the spleen from C57BL/6 mice were slightly sensitive to in vivo Compound (I) treatment while the proportion of CD4+ and CD8+ effector memory T-cells (TEM) was increasing; and (D) In vivo sensitivity of T-cell subsets in the blood following one week of treatment with Compound (I). The proportion of CD4+ and CD8+ effector memory T cells (TEM) increased in the blood from C57BL/6 mice following in vivo Compound (I) treatment.
Cancer Immunol Res. 5; 29-41 (2017)). Any reduction in checkpoint inhibitor-mediated tumor growth inhibition or response rates caused by the addition of venetoclax would indicate potential antagonism. The panel was composed of syngeneic models of solid tumors: CT26, MC38 (both colorectal carcinoma) and EMT6 (breast cancer). […] Likewise, only modest anti-tumor activity could be observed in these models with venetoclax alone, dosed daily at 50 mg/kg for 14 days (FIG. 3, FIG. 6, FIGS. 12A, 12B, 12C, and 12D). […] Rather, it enhanced their efficacy in certain cases.

MC38 tumors = assay: MC38 colon carcinoma syngeneic model, immune competent C57BL/6 mice; assay type: in vivo, mouse; details: MC38 in C57BL/6 mice; venetoclax 50 mg/kg/day orally 14 days; antibody 10 mg/kg IP every 4 days, 3 times; day 25
Protocol: as §2
MC38, mouse colon carcinoma cell line was obtained from National Cancer Institute (NCI).
as §3, §4

CC1(C)CCC(CN2CCN(c3ccc(C(=O)NS(=O)(=O)c4ccc(NCC5CCOCC5)c([N+](=O)[O-])c4)c(Oc4cnc5[nH]ccc5c4)c3)CC2)=C(c2ccc(Cl)cc2)C1 [Compound (I), venetoclax]
tumor growth inhibition (TGI) (CT26 tumors): 16% | number of CD8 T cells (CMV-positive CD8 T cells): reduced | IC50 (NCI-H358): > 10 µM | IC50 (HCT-116): > 10 µM | IC50 (SKBR3): 4.42 µM | IC50 (SW48): > 10 µM | IC50 (NCI-H661): > 10 µM | IC50 (NCI-H69): > 10 µM | IC50 (FaDu): > 10 µM | sensitivity of lymphocytes in lymph node, spleen and blood (B-cells, CD8+ T-cells, CD4+ T-cells) (mouse lymphocytes; daily 50/mg/kg for one week, flow cytometry): sensitive | murine T-cell populations in vivo (mouse lymphocytes; mice treated daily at 50 mg/kg for one week): clear reductions | proportion of memory cells, specifically effector memory cells (mouse lymphocytes; spleen and blood of C57BL/6 mice, one week of treatment): increase | tumor growth inhibition (TGI) (MC38 tumors): 41%
